Experimental data taken from US10570097B2, “Antimicrobial imidazolium compounds” (AGENCY FOR SCIENCE, TECHNOLOGY AND RESEARCH, priority 2014, dated 2020).
Read-outs that look alike come from different tables or passages of the source.

Tests used:
E. coli [1] = test: Minimum inhibitory concentration by microdilution assay; format: cell-based, Escherichia coli (ATCC 25922); details: for MIC E. coli: 37° C., 24 h
Protocol: (§1) Staphylococcus aureus (ATCC 6538, gram-positive), Escherichia coli (ATCC 25922, gram-negative), Pseudomonas aeruginosa (gram-negative), and Candida albicans (ATCC 10231, yeast) were used as representative microorganisms to challenge the antimicrobial functions of the imidazolium salts. All bacteria and yeast were stored frozen at −80° C., and were grown overnight at 37° C. in Tryptic Soy broth (TSB) prior to experiments. Yeast was grown overnight at 22° C. in Yeast Mold (YM) broth. Subsamples of these cultures were grown for 3 h further and diluted to give an optical density value of 0.07 at 600 nm, corresponding to 3×10^8 CFU mL^−1 (MacFarland's Standard).
(§2) The oligomer compounds were dissolved in PBS at a concentration of 1 mg mL^1 and the minimal inhibitory concentrations (MICs) were determined by microdilution assay. Typically, a 100 μL microbial solutions (containing 3×10^8 cells mL^−1) were added to 100 μL of PBS containing the test imidazolium salts (normally ranging from […] in serial two-fold dilutions) in each well of the 96-well microtiter plate. The plates were incubated at 37° C. for 24 h with shaking at 300 rpm, with monitoring at the 2, 4, 6, 8, and 24 h time points. […] Broth and PBS solution containing microbial cells alone were used as negative controls, and experiments were run in triplicates.

C. Albicans = test: as above; format: cell-based, Candida albicans (ATCC 10231); details: 24 h
Protocol: as §1, §2

[2] = Gelling properties in solvents (tube inversion test); format: physicochemical
Protocol: Gels were prepared by weighing the imidazolium oligomer compounds directly into 4 mL glass vials and subsequently adding a known weight or volume of the solvent. The vials containing both the imidazolium and the solvent were either vortexed or sonicated to ensure that the imidazolium was dissolved and dispersed thoroughly before being placed in a 4° C. fridge overnight. The tube inversion test method was used to examine gel formation in different solvents.

[3] = system: rat red blood cells (RBCs); test: Hemolysis; format: cell-based
Protocol: Before these materials can be used in systemic applications, selectivity of these materials for microbial cells over mammalian cells should also be considered. Such selectivity is often determined by observation of hemolysis. Hemolysis was performed in the following manner, fresh rat red blood cells (RBCs) were diluted with PBS buffer to give an RBC stock suspension (4 vol % blood cells). A 100 μL aliquot of RBC stock was added to a 96-well plate containing […] oligomer compound stock solutions of various concentrations (serial 2-fold dilution in PBS). After 1 h incubation at 37° C., The contents of each well was pipetted into a microcentrifuge tube and then centrifuged at 4000 rpm for 5 min. Hemolytic activity was determined as a function of hemoglobin release by measuring OD576 of […] of the supernatant. A control solution that contained only PBS was used as a reference for 0% hemolysis. 100% hemolysis was measured by adding 0.5% Triton-X to the RBCs. [formula] The selectivity of the materials was also further assessed, by calculating the selectivity indices (SI), a measure and a comparison of safety and efficacies of each oligomer compound. […] Herein, the more stringent control of HC10 value was chosen over the HC50 value often reported in literature.

E. coli [4] = test: Time kill kinetics; format: cell-based, Escherichia coli; details: for fast killing in words: E. coli time kill; for % kill / Log reduction: E. coli, 4MIC, two minutes
Protocol: Time kill studies of the soligome compounds against E. coli were also studied. The experimental setup for time kill kinetics was similar to the set up for MBC determination. The microbes were treated with oligomer compounds at 4MIC concentration, and samples were taken out of each well at 2 minutes. 500 μl of cell suspension was removed, rescued by a series of 10-fold dilutions with growth medium, and kept on ice until plating. For plating, 50 μl to 200 μl of the diluted samples was spread on growth medium agar plates and colonies were counted after overnight incubation at 37° C.

S. aureus = test: Minimum inhibitory concentration by microdilution assay; format: cell-based, Staphylococcus aureus (ATCC 6538); details: 37° C., 24 h
Protocol: as §1, §2

P. aeruginosa = test: as above; format: cell-based, Pseudomonas aeruginosa; details: 37° C., 24 h
Protocol: as §1, §2

[5] = Critical micellar concentration (pyrene fluorescent probe); format: physicochemical; details: for CMC in PBS: PBS buffer solution; for CMC in DI H2O: deionised water
Protocol: The CMC values of the oligomer compounds were determined in both deionised (DI) water and PBS, using a LS50B luminescence spectrometer (Perkin Elmer, United States) and employing pyrene as a fluorescent probe. A known weight of the oligomer compound was dissolved in either 2 mL of DI water or PBS in a 4 mL glass vial and serial dilutions were effected. 10 μL of pyrene stock solution in acetone (6.16×10^-5 M) was added to each vial containing 1 mL of a known concentration of the oligomer compound, and the acetone was then evaporated at room temperature. The solution was allowed to equilibrate overnight and the final concentration of pyrene in each vial was 6.16×10^-7 M. The excitation spectra of the solutions were scanned from 300 to 360 nm with an emission wavelength of 395 nm, and both the excitation and emission bandwidths were set at 2.5 nm. The intensity ratios ([…]/[…]) were plotted against polymer concentration. The CMC value was given by the intersection of the tangent to the curve at the inflection and the tangent of the points at low polymer concentrations.

[6] = system: 4 microbes (S. aureus, E. coli, P. aeruginosa, C. Albicans); test: MIC over the 4 microbes tested (geometric mean); format: cell-based; details: geometric mean of the MICs of the 4 microbes
Protocol: Staphylococcus aureus (ATCC 6538, gram-positive), Escherichia coli (ATCC 25922, gram-negative), Pseudomonas aeruginosa (gram-negative), and Candida albicans (ATCC 10231, yeast) were used as representative microorganisms to challenge the antimicrobial functions of the imidazolium salts. All bacteria and yeast were stored frozen at −80° C., and were grown overnight at 37° C. in Tryptic Soy broth (TSB) prior to experiments. Yeast was grown overnight at 22° C. in Yeast Mold (YM) broth. […] Typically, a 100 μL microbial solutions (containing 3×10^8 cells mL^−1) were added to 100 μL of PBS containing the test imidazolium salts (normally ranging from […] in serial two-fold dilutions) in each well of the 96-well microtiter plate. The plates were incubated at 37° C. for 24 h with shaking at 300 rpm, with monitoring at the 2, 4, 6, 8, and 24 h time points. […] Broth and PBS solution containing microbial cells alone were used as negative controls, and experiments were run in triplicates. The selectivity of the materials was also further assessed, by calculating the selectivity indices (SI), a measure and a comparison of safety and efficacies of each oligomer compound. […] Herein, the more stringent control of HC10 value was chosen over the HC50 value often reported in literature.

[7] = lowest concentration that induces 10% or more hemolysis, rat RBCs, 1 h, 37° C., maximum tested 100,000 ppm

SMILES | MIC C.A. (C. Albicans) | State in solvent ([2]; Acetone) | State in solvent ([2]; Acetonitrile) | Concentration to form gel ([2]; EtOH) | State in solvent ([2]; EtOH) | State in solvent ([2]; Ethylene glycol) | State in solvent ([2]; Glycerol) | Concentration to form gel ([2]; nBuOH) | State in solvent ([2]; nBuOH) | Concentration to form gel ([2]; nPrOH) | State in solvent ([2]; nPrOH) | fast killing in words (E. coli [4]) | % kill (E. coli [4]) | MIC S.A. (S. aureus) | MIC P.A. (P. aeruginosa) | MIC E. coli (E. coli [1]) | MIC GM [6] | HC10 [3, 7] | CMC in PBS [5] | CMC in DI H2O [5] | also measured
CCCCCCCC[n+]1ccn(C)c1.[Br-] [1-Methyl-3-octyl imidazolium bromide, reference compound] |  |  |  |  |  |  |  |  |  |  |  |  |  |  |  |  |  |  |  |  | MIC (E. coli [1]; Escherichia coli, Example 8, microbe not named, E. coli context): 1000 mg/L; MIC relative to Compound 2 (E. coli [1]; ratio of MIC to that of Compound 2): more than 100 times
CCCCCCCCCC[n+]1ccn(Cc2ccc(C[n+]3ccn(Cc4ccc(C[n+]5ccn(Cc6ccccc6Cn6cc[n+](Cc7ccc(Cn8cc[n+](Cc9ccc(Cn%10cc[n+](CCCCCCCCCC)c%10)cc9)c8)cc7)c6)c5)cc4)c3)cc2)c1.[Br-].[Br-].[Cl-].[Cl-].[Cl-].[Cl-] [Compound 3] | 31 mg/L | Insoluble | Insoluble | (12 wt %) | Gel | Solution | Solution | (7.9 wt %) | Gel | (7.9 wt %) | Gel | instantaneous elimination | >99.9% | 4 mg/L | 8 mg/L | 8 mg/L | 9.44 mg/L |  |  |  | HC10 [3]: 500 ppm; Log reduction (E. coli [4]): 3.49; sharp point of inflection indicating the critical micellar concentrations ([5]; FIG. 4, deionized water): not observed
CCCCCCCCCCCC[n+]1ccn(Cc2ccc(C[n+]3ccn(Cc4ccc(C[n+]5ccn(Cc6ccccc6Cn6cc[n+](Cc7ccc(Cn8cc[n+](Cc9ccc(Cn%10cc[n+](CCCCCCCCCCCC)c%10)cc9)c8)cc7)c6)c5)cc4)c3)cc2)c1.[Br-].[Br-].[Cl-].[Cl-].[Cl-].[Cl-] [Compound 4] | 31 mg/L | Insoluble | Insoluble | (9.0 wt %) | Gel | Solution | Solution | (5.8 wt %) | Gel | (7.2 wt %) | Gel | instantaneous elimination | >99.9% | 4 mg/L | 16 mg/L | 8 mg/L | 11.22 mg/L | 31 ppm | 10.9 ppm | 938.5 ppm | Gel formation ([2]; binary mixtures of water/ethanol and glycerol/ethanol): did not form a gel; Log reduction (E. coli [4]): 3.69
CCCCCCCCCCCCCC[n+]1ccn(Cc2ccc(C[n+]3ccn(Cc4ccc(C[n+]5ccn(Cc6ccccc6Cn6cc[n+](Cc7ccc(Cn8cc[n+](Cc9ccc(Cn%10cc[n+](CCCCCCCCCCCCCC)c%10)cc9)c8)cc7)c6)c5)cc4)c3)cc2)c1.[Br-].[Br-].[Cl-].[Cl-].[Cl-].[Cl-] [Compound 5] | 31 mg/L | Insoluble | Insoluble | (12.9 wt %) | Gel | Solution | Solution | (5.3 wt %) | Gel | (5.3 wt %) | Gel |  |  | 4 mg/L | 16 mg/L | 16 mg/L | 13.35 mg/L | 15 ppm | 4.9 ppm | 200.3 ppm | 
CCCCCCCCCCCCCCCC[n+]1ccn(Cc2ccc(C[n+]3ccn(Cc4ccc(C[n+]5ccn(Cc6ccccc6Cn6cc[n+](Cc7ccc(Cn8cc[n+](Cc9ccc(Cn%10cc[n+](CCCCCCCCCCCCCCCC)c%10)cc9)c8)cc7)c6)c5)cc4)c3)cc2)c1.[Br-].[Br-].[Cl-].[Cl-].[Cl-].[Cl-] [Compound 6] | 62 mg/L | Insoluble | Insoluble | (9.6 wt %) | Gel | opaque gels and Gel | opaque gels and Gel | (6.9 wt %) | Gel | (6.9 wt %) | Gel |  |  | 8 mg/L | 16 mg/L | 16 mg/L | 18.88 mg/L | 15 ppm | 1.3 ppm | 38.5 ppm | Concentration to form gel ([2]; Ethylene glycol): (4.7 wt %); Concentration to form gel ([2]; Glycerol): (6.3 wt %)
[Br-].[Br-].[Cl-].[Cl-].[Cl-].[Cl-].c1ccc(Cn2cc[n+](Cc3ccc(Cn4cc[n+](Cc5ccc(Cn6cc[n+](CC7CCCCC7)c6)cc5)c4)cc3)c2)c(Cn2cc[n+](Cc3ccc(Cn4cc[n+](Cc5ccc(Cn6cc[n+](CC7CCCCC7)c6)cc5)c4)cc3)c2)c1 [Compound 7] | 31 mg/L |  |  |  |  |  |  |  |  |  |  |  |  | 8 mg/L | 16 mg/L | 16 mg/L | 15.87 mg/L | 12500 ppm |  |  | Gel formation ([2]; any of the solvents): not able to form gels
